Entries after “also recorded” stand apart in the source; their conditions may differ.
Experiments:
HaCaT cells = assay: Resazurin assay of HaCaT keratinocyte cell proliferation and viability
Description: (§1) The spontaneously immortalized, nontumorigenic skin keratinocyte cell line HaCaT was maintained in DMEM supplemented with 5% (v/v) FBS, 0.3 mg/ml glutamine and 0.1 mg/ml gentamicin at 37° C. with 5% CO2 in a humidified atmosphere. Subculture using trypsin-EDTA was performed every 3-4 days with split ratio of 1:3-1:4 to ensure actively proliferating cells.
(§2) Cells were seeded in 96 well plates in fully supplemented medium at a density of 2500 cells per well. Following 72 hours of cultivation, the cells were starved of serum in 0.25% FBS/DMEM overnight to halt proliferation, synchronize and to increase cell sensitivity to treatment. On day 4, the cells were treated with cPLA2α inhibitor Compound A and vitamin D analogue Calcipotriol hydrate (Sigma Aldrich #C4369) and left to incubate for […] in incubator at 37° C. with 5% CO2 in a humidified atmosphere before fluorescence was read at 544 nm excitation and 590 nm emission wavelength. The cells were observed under the microscope to evaluate possible morphology changes and signs of stress before addition of resazurin. The experiments were performed in series of 8 wells per treatment and repeated 2-3 times.
as §2, with “hour” for “hours”, “synchronize the cells” for “synchronize”, “corticosteroid Betamethasone 17, 21-dipropionate (Sigma Aldrich #B1152)” for “cPLA2α inhibitor Compound A”, “#C4369) for 24 hours. On day 5, resazurin was added according to the manufacturer's instruction (RnD Systems, UK)” for “#C4369)”
as §2, with “3000” for “2500”, “48-72 hour” for “72 hours”, “synchronize the cells” for “synchronize”, “Next day,” for “On day 4,”, “compound” for “cPLA2α inhibitor Compound”, “or calcipotriol for 24 hours. Resazurin was added next day according to the manufacturer's instruction (RnD Systems, UK)” for “and vitamin D analogue Calcipotriol hydrate (Sigma Aldrich #C4369)”
as §1, with “1:4” for “1:3-1:4”
Cells were seeded in 96 well plates in fully supplemented medium at a density of 3000 cells per well. Following 72 hour of cultivation, the cells were starved of serum in 0.25% FBS/DMEM overnight to halt proliferation, synchronize the cells and to increase cell sensitivity to treatment. Next day, the cells were treated with Compound A, vitamin D analogue Calcipotriol and corticosteroid hormone receptor agonist Betamethasone dipropionate for 24 hours.

[1] = test system: PGE2 production in PBMC challenged with LPS; assay: PGE2 enzyme immunoassay of supernatants of PBMC challenged with LPS; assay type: cell-based, human
Description: Blood from healthy, consenting blood donors was collected at St. Olays Hospital HF, Trondheim, Norway.
From each donor, 2×6 ml heparin tubes with blood were used. Peripheral blood mononuclear cells (PBMC) were isolated using 50 mL SepMate™ tubes ([…]™ Technology, UK) and Lymphoprep™ (Fresenius Kabi, N) density gradient according to the manufacturers instructions.
PBMC were resuspended in RPMI-1640 cell culture medium complemented with 5% heat-inactivated fetal bovine serum (FBS), 0.03% glutamine, 0.01 mg/mL gentamicin and 3.4 ppm β-mercaptoethanol (all reagents from Sigma-Aldrich). […]
PGE2 enzyme immunoassay analysis of PBMC supernatants was performed according to the kit protocol (Cayman Chemicals, #514010, USA). […] The plate was read at OD 420 nm using a Cytation 5 imaging reader from BioTek and data acquired with the corresponding software Gen5 2.09. A four-parameter logistic model was fit to the absorbance data to determine PGE2 levels using the Cayman PGE2 protocol. […]
Accordingly, we isolated peripheral blood mononuclear cells, treated them with various doses and combinations of Compound A and calcipotriol and finally added LPS as a trigger to mount a broad inflammatory response. The cell supernatants collected following 72 hrs of LPS stimulation were next analyzed with respect to levels of PGE2, a key proinflammatory mediator close to the cPLA2α target.

Compound	reduction of cell proliferation and viability (HaCaT cells; Example 2, 24 hours, 50 μM Betamethasone alone) [%]	effect on proliferation and viability of HaCaT cells (HaCaT cells; Example 1, 10 μM, alone)	effect on HaCaT cell viability (HaCaT cells; Example 3/4, 24 hours, 15 μM, alone)	effect on HaCaT cell viability (HaCaT cells; Example 3, 24 hours, doses 1-10 μM, alone)	effect on HaCaT cell viability (HaCaT cells; Example 4, 10 μM, alone)	cytotoxicity at 10 µM (HaCaT cells; Homo sapiens, HaCaT, 24 h, read-out: reduction of cell proliferation and viability) [%]	increase of PGE2 ([1]; calcipotriol 0.5 μM alone) [%]	effect on PGE2 levels ([1]; high doses of calcipotriol alone (<0.5 μM))
CCC(=O)OCC(=O)[C@@]1(OC(=O)CC)[C@@H](C)C[C@H]2[C@@H]3CCC4=CC(=O)C=C[C@]4(C)[C@@]3(F)[C@@H](O)C[C@@]21C [Betamethasone, Betamethasone 17, 21-dipropionate]	10							
C=C1/C(=C\C=C2/CCC[C@]3(C)[C@@H]([C@H](C)/C=C/[C@@H](O)C4CC4)CC[C@@H]23)C[C@@H](O)C[C@@H]1O [Calcipotriol]		little or no effect	affect cell viability; also recorded: reduced cell viability	no signs of impairment in cell viability	no signs of impairment in cell viability	20	18	PGE2 levels increased

From patent US20190209585A1, “COMBINATION THERAPY COMPRISING A POLYUNSATURATED KETONE AND A SECOSTEROID” (Avexxin AS, priority 2016, published 2019)
